In ChEMBL document CHEMBL4837229 (Eur J Med Chem, 2021):
Calls of active or inactive are those of the source. The calls are words filed in the database; no cut-off is given here.

Tests used:
Neuraminidase = Neuraminidase (Influenza A virus, UniProt B4URF0); design: species or system Influenza A virus (A/Anhui/1/2005(H5N1))
[1] = Inhibition of Influenza A virus (A/California/04/2009(H1N1)) Neuraminidase using MUNANA as substrate preincubated for 5 to 15 mins followed by substrate addition and measured after 30 mins by fluorescence spectrophotometric method
Influenza A virus [2] = assay type: functional, organism-based; details: A/California/04/2009(H1N1), MDCK, time 46.0 hrs
MDCK = assay: Cytotoxicity against MDCK cells assessed as reduction in cell viability at 250 uM; assay type: cell-based, Canis lupus familiaris; details: dog
[3] = Stability of the compound in human plasma assessed as parent compound remaining measured immediately; assay type: ADME, cell-free; details: read-out: Stabilty
[4] = Stability of the compound in human plasma assessed as parent compound remaining measured after 10 mins; assay type: ADME, cell-free; details: read-out: Stabilty
[5] = Stability of the compound in human plasma assessed as parent compound remaining measured after 30 mins; assay type: ADME, cell-free; details: read-out: Stabilty
[6] = Stability of the compound in human plasma assessed as parent compound remaining measured after 60 mins; assay type: ADME, cell-free; details: read-out: Stabilty
[7] = Stability of the compound in human plasma assessed as parent compound remaining measured after 120 mins; assay type: ADME, cell-free; details: read-out: Stabilty
in vitro [8] = details: mouse, liver microsomes
in vitro [9] = details: rat, liver microsomes
in vitro [10] = details: human, liver microsomes
Influenza A virus [11] = assay: microbe, parasite or virus in culture; details: A/California/04/2009(H1N1), MDCK, 48 h

Chain of Neuraminidase (B4URF0 whole entry): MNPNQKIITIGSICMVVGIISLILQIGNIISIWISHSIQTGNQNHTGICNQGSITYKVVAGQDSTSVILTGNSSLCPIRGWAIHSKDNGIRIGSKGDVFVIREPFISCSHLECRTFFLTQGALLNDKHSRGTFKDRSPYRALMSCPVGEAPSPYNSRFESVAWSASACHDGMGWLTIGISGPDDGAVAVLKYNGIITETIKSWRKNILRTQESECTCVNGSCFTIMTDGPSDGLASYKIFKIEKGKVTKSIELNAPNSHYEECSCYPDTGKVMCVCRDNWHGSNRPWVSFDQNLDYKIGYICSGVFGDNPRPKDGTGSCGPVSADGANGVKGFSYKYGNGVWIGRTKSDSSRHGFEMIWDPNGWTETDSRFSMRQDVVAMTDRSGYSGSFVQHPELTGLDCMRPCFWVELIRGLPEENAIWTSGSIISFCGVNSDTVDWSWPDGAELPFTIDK

Row | SMILES | IC50 (Neuraminidase) | further results
1 | CCC(CC)O[C@@H]1C=C(C(=O)O)C[C@H](NC(=O)NN)[C@H]1NC(C)=O | 26.8 nM | IC50 [1]: 11.9 nM; Activity (Influenza A virus [2]): inactive; Activity (MDCK): Non-Toxic; remaining at 0 min [3]: 100%; remaining at 10 min [4]: 88.6%; remaining at 0.5 h [5]: 98.8%; remaining at 1 h [6]: 99.5%; remaining at 2 h [7]: 107%; half-life (in vitro [8]): 49.7 min; half-life (in vitro [9]): 45.9 min; half-life (in vitro [10]): 72.9 min; EC50 (Influenza A virus [11]): 7.8 nM
2 | CCC(CC)O[C@@H]1C=C(C(=O)O)C[C@H](NC(=O)NNCC2CC2)[C@H]1NC(C)=O | 4110 nM | 
3 | CCC(CC)O[C@@H]1C=C(C(=O)O)C[C@H](NC(N)=O)[C@H]1NC(C)=O | 254 nM | IC50 [1]: 8.7 nM
4 | CCC(CC)O[C@@H]1C=C(C(=O)O)C[C@H](N)[C@H]1NC(C)=O [OSELTAMIVIR CARBOXYLATE] |  | EC50 (Influenza A virus [11]): 1.4 nM
5 | CCC(CC)O[C@@H]1C=C(C(=O)O)C[C@H](NC(=O)NNCc2ccccc2Cl)[C@H]1NC(C)=O | 586 nM | 
6 | CCNNC(=O)N[C@H]1CC(C(=O)O)=C[C@@H](OC(CC)CC)[C@@H]1NC(C)=O | 576 nM | 
7 | CCCCCCCNNC(=O)N[C@H]1CC(C(=O)O)=C[C@@H](OC(CC)CC)[C@@H]1NC(C)=O | 575 nM | 
8 | CCC(CC)O[C@@H]1C=C(C(=O)O)C[C@H](NC(=O)NNC2CCOCC2)[C@H]1NC(C)=O | 1210 nM | 
9 | CCC(CC)O[C@@H]1C=C(C(=O)O)C[C@H](NC(=O)NNCCCc2ccccc2)[C@H]1NC(C)=O | 9150 nM | 
10 | CCC(CC)O[C@@H]1C=C(C(=O)O)C[C@H](NC(=O)NNCc2cccc(Cl)c2)[C@H]1NC(C)=O | 5850 nM | 
11 | CCC(CC)O[C@@H]1C=C(C(=O)O)C[C@H](NC(=O)NNCCc2ccccc2)[C@H]1NC(C)=O | 2460 nM | 
12 | CCC(CC)O[C@@H]1C=C(C(=O)O)C[C@H](NC(=O)NNCc2cccc(OC)c2)[C@H]1NC(C)=O | 326 nM | 
13 | CCC(CC)O[C@@H]1C=C(C(=O)O)C[C@H](NC(=O)NNC)[C@H]1NC(C)=O |  | IC50 [1]: 249 nM
14 | CCC(CC)O[C@@H]1C=C(C(=O)O)C[C@H](NC(=O)NNCc2ccccc2)[C@H]1NC(C)=O | 4350 nM | 
15 | CCCCCNNC(=O)N[C@H]1CC(C(=O)O)=C[C@@H](OC(CC)CC)[C@@H]1NC(C)=O | 1100 nM | 
16 | CCCCCCCCNNC(=O)N[C@H]1CC(C(=O)O)=C[C@@H](OC(CC)CC)[C@@H]1NC(C)=O | > 10000 nM | 
17 | CCC(CC)O[C@@H]1C=C(C(=O)O)C[C@H](NC(=O)NNCc2ccccc2OC)[C@H]1NC(C)=O | 2760 nM | 
18 | CCCNNC(=O)N[C@H]1CC(C(=O)O)=C[C@@H](OC(CC)CC)[C@@H]1NC(C)=O | 241 nM | 
19 | CCC(CC)O[C@@H]1C=C(C(=O)O)C[C@H](NC(=O)NNCc2ccc(Cl)cc2)[C@H]1NC(C)=O | 875 nM | 
20 | CCC(CC)O[C@@H]1C=C(C(=O)O)C[C@H](NC(=O)NNC/C=C/c2ccccc2)[C@H]1NC(C)=O | 7850 nM | 
21 | CCCCNNC(=O)N[C@H]1CC(C(=O)O)=C[C@@H](OC(CC)CC)[C@@H]1NC(C)=O | 38.3 nM | IC50 [1]: 332 nM
22 | CCC(CC)O[C@@H]1C=C(C(=O)O)C[C@H](NC(=O)NNCC(C)C)[C@H]1NC(C)=O | 2320 nM | 
23 | CCC(CC)O[C@@H]1C=C(C(=O)O)C[C@H](NC(=O)NNCCC(C)C)[C@H]1NC(C)=O | 1530 nM | 
24 | CCCCCCNNC(=O)N[C@H]1CC(C(=O)O)=C[C@@H](OC(CC)CC)[C@@H]1NC(C)=O | 4980 nM | 
25 | CCC(CC)O[C@@H]1C=C(C(=O)O)C[C@H](NC(=O)NNCc2ccc(OC)cc2)[C@H]1NC(C)=O | 567 nM | 
